“And” between values parts separate entries of the source, which are not always exact repeats. Equal values may be shown once.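 Five concentrations, 48 hours, 96-well plates. Here, GI50 denotes the concentration required for 50% inhibition of growth. Definition used: TGI = concentration required for complete inhibition of growth.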
Key:
Test in all cases: DTP human tumour cell line panel, 48 h
[1] = test system: SN12C renal
[2] = test system: MALME-3M melanoma
[3] = test system: EKVX NSCLC
[4] = test system: RPMI-8226 leukemia
[5] = test system: SF-295 CNS
[6] = test system: LOX IMVI melanoma
[7] = test system: MCF7 breast
[8] = test system: SF-268 CNS
[9] = test system: IGROV1 ovarian
[10] = test system: SNB-19 CNS

Structure (SMILES)	GI50 [1] [µM]	TGI [1] [µM]	GI50 [2] [µM]	TGI [2]	GI50 [3] [µM]	TGI [3] [µM]	GI50 [4] [µM]	TGI [4] [µM]	GI50 [5] [µM]	TGI [5] [µM]	GI50 [6] [µM]	TGI [6] [µM]	GI50 [7] [µM]	TGI [7] [µM]	GI50 [8] [µM]	TGI [8] [µM]	GI50 [9] [µM]	TGI [9] [µM]	GI50 [10] [µM]	TGI [10] [µM]
CCCCCC(=O)O[C@]1(C(C)=O)CCC2C3CCC4=CC(=O)CC[C@]4(C)C3CC[C@@]21C (stereo partly specified)	1.6	3.37	2.18	6.05 µM	2.91	20.2	1.42	4.82	2.87	12.5	1.67	3.14	2.51	8.39	3.46	18	2.7	11.4	3.27	> 64.8
COc1ccc(C(O)c2cc3c(N)c(C(=O)Nc4cccc5ccccc45)sc3nc2C)cc1 (stereo unspecified)	0.629	> 46.8	0.544	> 60.8 µM	0.486	> 100	4.17	> 100	3.4	> 100	0.444	> 39.9	0.324	> 90.9	0.615	> 100	0.574	> 100	0.469	> 100
COC12C(COC(=O)NCCO)C3=C(C(=O)C(C)=C(N)C3=O)N1CC1NC12 (stereo unspecified)	34.4	> 264	45.3	64 µM and 101 µM	–	> 264	–	> 264	24.3	> 264	22.2	64.7	–	118	32.9	217	39.8	116	–	169
COCCOC1=C(Cl)C(=O)c2ccccc2C1=O	3.91	16.5	3.08	13.4 µM	3.51	15.8	2.31	6.75	4.42	15.9	1.75	3.31	3.06	14.7	2.24	9.32	2.62	6.44	4.55	16.8
Cc1cnc(C(=O)NNc2nc3sc4c(c3c(=O)[nH]2)C(C)CCC4)cn1 (stereo unspecified)	1.17	31.4	1.72	12.2 µM	1.19	78.2	3.39	> 100	1.08	14.6	0.708	6.37	1.9	> 100	0.891	> 100	0.759	15.8	1.29	> 100
[O]=[V]([OH])([OH])[OH]	> 100	> 100	> 100	> 100 µM	> 100	> 100	–	–	> 100	> 100	> 100	> 100	> 100	> 100	> 100	> 100	> 100	> 100	> 100	> 100
Cc1ccc(S(=O)(=O)NCCCCC(N)C(=O)O)cc1 (stereo unspecified)	–	> 100	–	> 100 µM	–	> 100	–	> 100	–	> 100	–	–	–	> 100	–	> 100	–	> 100	–	> 100
COc1cc(-c2nccc3[nH]c(-c4ccc5cc[nH]c5c4)nc23)cc(OC)c1OC	< 0.01	9.93	1.29	3.2 µM	–	–	0.0448	5.16	< 0.01	< 0.01	< 0.01	1.5	0.0568	2.87	< 0.01	3.21	0.015	3.77	< 0.01	15.8
C#Cc1ccc(-n2c(/C=C/c3ccc(O)cc3)nc3ncccc3c2=O)cc1	5.16	> 100	5.13	> 100 µM	–	–	3.41	> 100	–	–	5.35	> 100	3.04	> 100	5.24	68	4.69	35.4	6.26	> 100
COc1ccc(-c2cc(/C=C/C(=O)c3ccc(N)cc3)[nH]n2)cc1OC	3.53	13.7	6.72	21.2 µM	–	–	1.28	5.52	3.58	15.2	1.92	3.91	2.28	8.48	1.89	4.4	4.56	19	4.36	18
CCc1ccc(Nc2cc(C)c3ccc(O)cc3n2)cc1	6.24	23.5	6.19	19 µM	–	–	3.19	20.2	5.06	20.3	5.03	18.5	4.75	22.4	11.2	30.3	6.14	20.8	13	32.1
COc1ccccc1CNCCN1C(=O)c2ccc3c4c(ccc(c24)C1=O)C(=O)N(CCNCc1ccccc1OC)C3=O	0.248	0.701	0.386	1.55 µM	–	–	0.287	0.955	–	–	0.168	0.338	0.198	0.492	0.269	1.12	0.203	0.549	–	–
O=C(c1cccs1)c1c(C(F)(F)F)n([O-])c2cc(Cl)c(Cl)cc2[n+]1=O	1.31	2.83	1.23	2.65 µM	2.11	4.04	–	–	0.51	1.32	0.0703	0.493	0.0762	1.17	1.03	2.45	0.073	1.07	–	–
CN1CCN(c2c(F)cc(NC3=C(Cl)C(=O)c4ncccc4C3=O)cc2F)CC1	3.22	13.2	1.59	2.97 µM	14.9	33.4	–	–	17.2	33.5	2.15	5.17	2.04	5.35	14.1	28.3	2.92	11.5	17.1	31.1
